The values below come from patent US20240409585A1, “MACROCYCLIC IMMUNOMODULATORS” (priority 2021, published 2024).

Numbered stars: 1 amine (or outer) side, 2 acyl side, 3 side chain; on linkers, the order of the positions; unused ones are H or OH. Bridge positions count the residues as written; N and C are the ends. Square brackets hold non-standard residues; d marks the D form. Peptide text beside a SMILES is read from it. * marks the point of attachment. ξ: configuration not given here. Phe(3-COOH) = N[C@@H](Cc1cccc(C(=O)O)c1)C(=O)O; Phe(4-COOH) = N[C@@H](Cc1ccc(C(=O)O)cc1)C(=O)O; Bip = N[C@@H](Cc1ccc(-c2ccccc2)cc1)C(=O)O; Phe(3-Cl) = N[C@@H](Cc1cccc(Cl)c1)C(=O)O; Phe(3-OMe) = COc1cccc(C[C@H](N)C(=O)O)c1; Phe(3-Me) = Cc1cccc(C[C@H](N)C(=O)O)c1; X34 = O=C([C@H](Cc1ccoc1)N[*:1])[*:2]; Val(3-OH) = CC(C)(O)[C@H](N)C(=O)O; 4Pal = N[C@@H](Cc1ccncc1)C(=O)O; pS = N[C@@H](COP(=O)(O)O)C(=O)O; Cha = N[C@@H](CC1CCCCC1)C(=O)O; Ile(3ξ) = CCC(C)[C@H](N)C(=O)O; Thr(3ξ) = CC(O)[C@H](N)C(=O)O; Carboxymethyl = O=C(O)C*; NMeA = CN[C@@H](C)C(=O)O; Dab = NCC[C@H](N)C(=O)O; Dap = NC[C@H](N)C(=O)O; Piv = CC(C)(C)C(=O)*; ξC = NC(CS)C(=O)O

The target of the first assay is T1, PE-labeled human PD-L1-Ig binding to Jurkat cell line over-expressing human PD-1 (Jurkat-PD-1) (Homo sapiens, UniProt Q15116).
T1 construct: expressed in transfected cells; host or cells: Jurkat
T1 sequence (Q15116 25-288): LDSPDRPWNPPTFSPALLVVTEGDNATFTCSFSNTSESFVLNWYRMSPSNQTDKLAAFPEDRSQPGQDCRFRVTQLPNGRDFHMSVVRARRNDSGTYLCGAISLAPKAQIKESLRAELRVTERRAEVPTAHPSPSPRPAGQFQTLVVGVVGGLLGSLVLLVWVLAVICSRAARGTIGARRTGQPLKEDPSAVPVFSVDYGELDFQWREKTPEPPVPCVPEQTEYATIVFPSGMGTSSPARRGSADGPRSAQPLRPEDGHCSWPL
The assay is described as follows: Jurkat-PD-1 Cell Binding High-Content Screening Assay (CBA): Method 1. The following applies: Jurkat-PD-1 cells, PE-labeled PD-L1-Ig; μM; read-out: CBA Method 1 μM.
With `CCC(C)[C@@H]1NC(=O)[C@H](Cc2ccc(-c3ccccc3)cc2)NC(=O)[C@H](C(C)C)NC(=O)[C@H](Cc2c[nH]c3ccccc23)NC(=O)[C@H](CC(=O)O)NC(=O)[C@H](Cc2ccc(O)cc2)NC(=O)[C@H](Cc2ccoc2)NC(=O)CSC[C@@H](C(=O)N2CCC[C@H]2C(N)=O)NC(=O)[C@H](C(C)O)NC(=O)[C@H](C(C)(C)O)NC(=O)[C@H](CC2CCCCC2)NC(=O)[C@H](CC(N)=O)NC(=O)[C@@H](CC(C)C)NC(=O)[C@H](C)N(C)C1=O` (stereo partly drawn) [Example 5009] ({CH2CO}-[X34]YDWV[Bip][Ile(3ξ)][NMeA][dL]N[Cha][Val(3-OH)][Thr(3ξ)]CP-NH2; thioether N-14), the IC50 was determined as 0.45 µM.

Staying with this assay, now noted: Jurkat-hPD-1 cells, PE-labeled PD-L1-Ig 20 nM final; read-out: Jurkat HPDL1 PD1 IC50 (uM) (Method 1).
Consider `Cc1cccc(C[C@@H]2NC(=O)[C@H](CC(=O)O)NC(=O)[C@H](Cc3ccc(OCC(=O)O)cc3)NC(=O)[C@H](Cc3ccncc3)NC(=O)CSC[C@@H](C(=O)N[C@@H](CCNC(=O)C(C)(C)C)C(N)=O)NC(=O)[C@H]([C@@H](C)O)NC(=O)[C@H](C(C)C)NC(=O)[C@H](CC3CCCCC3)NC(=O)[C@H](CCN)NC(=O)[C@@H](CC(C)C)NC(=O)[C@H](C)N(C)C(=O)[C@H](Cc3ccc(OCC(=O)O)cc3)NC(=O)[C@H](Cc3ccc(-c4ccccc4)cc3)NC(=O)[C@H](Cc3ccc(OCC(=O)O)cc3)NC2=O)c1` [Compound 1867] ({CH2CO}-[4Pal]Y(Carboxymethyl)D[Phe(3-Me)]Y(Carboxymethyl)[Bip]Y(Carboxymethyl)[NMeA][dL][Dab][Cha]VTC[Dab](Piv)-NH2; thioether N-14), for which the IC50 was found to be 0.03 µM.
Same read-out and setting: the value for `CC(C)C[C@@H]1NC(=O)[C@H](CCN)NC(=O)[C@@H](CC(C)C)NC(=O)[C@H](C)N(C)C(=O)[C@H](CCCNC(=N)N)NC(=O)[C@H](Cc2ccc(-c3ccccc3)cc2)NC(=O)[C@H](C(C)C)NC(=O)[C@H](Cc2c[nH]c3ccccc23)NC(=O)[C@H](CC(=O)O)NC(=O)[C@H](Cc2ccc(O)cc2)NC(=O)[C@H](CCCNC(=N)N)NC(=O)CSC[C@@H](C(=O)N[C@@H](C)C(N)=O)NC(=O)[C@H]([C@@H](C)O)NC(=O)[C@H](C(C)C)NC1=O` [Compound 1343] ({CH2CO}-RYDWV[Bip]R[NMeA][dL][Dab]LVTCA-NH2; thioether N-14) was 0.04 µM; that for `CCC(C)[C@@H]1NC(=O)[C@H](Cc2ccc(-c3ccccc3)cc2)NC(=O)[C@H](CC(C)C)NC(=O)[C@H](Cc2c[nH]c3ccccc23)NC(=O)[C@H](CC(=O)O)NC(=O)[C@H](Cc2ccc(OCC(=O)O)cc2)NC(=O)[C@H](C(C)O)NC(=O)CSC[C@@H](C(=O)N[C@@H](CC(N)=O)C(=O)O)NC(=O)[C@H](CC(C)C)NC(=O)[C@H](C(C)C)NC(=O)[C@H](CC(C)C)NC(=O)[C@H](CCN)NC(=O)[C@@H](CC(C)C)NC(=O)[C@H](C)N(C)C1=O` (stereo partly drawn) [Compound 2224] ({CH2CO}-[Thr(3ξ)]Y(Carboxymethyl)DWL[Bip][Ile(3ξ)][NMeA][dL][Dab]LVLCN-OH; thioether N-14) was 0.24 µM; that for `CC(C)C[C@@H]1NC(=O)[C@H](CCN)NC(=O)[C@@H](CC(C)C)NC(=O)[C@H]2CCCN2C(=O)[C@H](C(C)C)NC(=O)[C@H](Cc2ccc(-c3ccccc3)cc2)NC(=O)[C@H](C(C)C)NC(=O)[C@H](Cc2c[nH]c3ccccc23)NC(=O)[C@H](CC(=O)O)NC(=O)[C@H](Cc2ccc(O)cc2)NC(=O)[C@H](CC(N)=O)NC(=O)CSC[C@@H](C(=O)N[C@@H](C)C(N)=O)NC(=O)[C@H]([C@@H](C)O)NC(=O)[C@H](C(C)C)NC1=O` [Compound 1279] ({CH2CO}-NYDWV[Bip]V[dP][dL][Dab]LVTCA-NH2; thioether N-14) was 0.02 µM.
On the same count and under the same terms, the result for `CC(C)C[C@@H]1NC(=O)[C@H](Cc2c[nH]c3ccccc23)NC(=O)[C@H](CC(=O)O)NC(=O)[C@H](Cc2cccc(C(=O)O)c2)NC(=O)[C@H](CN)NC(=O)CSC[C@@H](C(=O)NCC(N)=O)NC(=O)[C@H](CO)NC(=O)[C@H](C(C)C)NC(=O)[C@H](CC2CCCCC2)NC(=O)[C@H](CCN)NC(=O)[C@@H](CC(C)C)NC(=O)[C@H](C)N(C)C(=O)[C@H](C(C)C)NC(=O)[C@H](Cc2ccc(-c3ccccc3)cc2)NC1=O` [Compound 1877] ({CH2CO}-[Dap][Phe(3-COOH)]DWL[Bip]V[NMeA][dL][Dab][Cha]VSCG-NH2; thioether N-14) reads 0.01 µM; that for `CC(C)C[C@@H]1NC(=O)[C@H](Cc2c[nH]c3ccccc23)NC(=O)[C@H](COP(=O)(O)O)NC(=O)[C@H](Cc2ccc(O)cc2)NC(=O)[C@H](Cc2ccccc2)NC(=O)CSC[C@@H](C(=O)N[C@@H](C)C(N)=O)NC(=O)[C@H](CO)NC(=O)[C@H](C(C)C)NC(=O)[C@H](CC(C)C)NC(=O)[C@H](CC(N)=O)NC(=O)[C@@H](C)NC(=O)[C@H](C)N(C)C(=O)[C@H](C(C)C)NC(=O)[C@H](Cc2ccc(-c3ccccc3)cc2)NC1=O` [Compound 1821] ({CH2CO}-FY[pS]WL[Bip]V[NMeA][dA]NLVSCA-NH2; thioether N-14), 0.49 µM; that for `CC(C)C[C@@H]1NC(=O)[C@H](CCN)NC(=O)[C@@H](CC(C)C)NC(=O)[C@H](C)N(C)C(=O)[C@H](CCCNC(=N)N)NC(=O)[C@H](Cc2ccc(-c3ccccc3)cc2)NC(=O)[C@H](C(C)C)NC(=O)[C@H](Cc2cccc(Cl)c2)NC(=O)[C@H](CC(=O)O)NC(=O)[C@H](Cc2ccc(C(=O)O)cc2)NC(=O)[C@H](CN)NC(=O)CSC[C@@H](C(=O)N[C@@H](C)C(N)=O)NC(=O)[C@H]([C@@H](C)O)NC(=O)[C@H](C(C)C)NC1=O` [Compound 1459] ({CH2CO}-[Dap][Phe(4-COOH)]D[Phe(3-Cl)]V[Bip]R[NMeA][dL][Dab]LVTCA-NH2; thioether N-14), 0.04 µM.
Still for that read-out and setting: the result for `COc1cccc(C[C@@H]2NC(=O)[C@H](CC(N)=O)NC(=O)CSC[C@@H](C(=O)N[C@@H](C)C(N)=O)NC(=O)[C@H]([C@@H](C)O)NC(=O)[C@H](C(C)C)NC(=O)[C@H](CC(C)C)NC(=O)[C@H](CCN)NC(=O)[C@@H](CC(C)C)NC(=O)[C@H](C)N(C)C(=O)[C@H](CCCNC(=N)N)NC(=O)[C@H](Cc3ccc(-c4ccccc4)cc3)NC(=O)[C@H](C(C)C)NC(=O)[C@H](Cc3c[nH]c4ccccc34)NC(=O)[C@H](CC(=O)O)NC2=O)c1` [Compound 1307] ({CH2CO}-N[Phe(3-OMe)]DWV[Bip]R[NMeA][dL][Dab]LVTCA-NH2; thioether N-14) reads 0.1 µM.
As to `CCC(C)[C@@H]1NC(=O)[C@H](Cc2ccc(-c3ccccc3)cc2)NC(=O)[C@H](C(C)C)NC(=O)[C@H](Cc2cccc(C)c2)NC(=O)[C@H](CC(=O)O)NC(=O)[C@H](Cc2ccc(OCC(=O)O)cc2)NC(=O)[C@H](Cc2ccncc2)NC(=O)CSCC(C(=O)N[C@@H](CCC(=O)O)C(=O)N[C@@H](CN)C(=O)O)NC(=O)[C@H](CO)NC(=O)[C@H](C(C)C)NC(=O)[C@H](CC2CCCCC2)NC(=O)[C@H](CC(N)=O)NC(=O)[C@@H](CC(C)C)NC(=O)[C@H](C)N(C)C1=O` (stereo partly drawn) [Compound 2007] ({CH2CO}-[4Pal]Y(Carboxymethyl)D[Phe(3-Me)]V[Bip][Ile(3ξ)][NMeA][dL]N[Cha]VS[ξC]E[Dap]-OH; thioether N-14), the IC50 is 0.01 µM.
Still for that read-out and setting: the value for `CC(C)C[C@@H]1NC(=O)[C@H](CCCNC(=N)N)NC(=O)[C@@H](CC(C)C)NC(=O)[C@H](C)N(C)C(=O)[C@H](C(C)C)NC(=O)[C@H](Cc2ccc(-c3ccccc3)cc2)NC(=O)[C@H](C(C)C)NC(=O)[C@H](Cc2c[nH]c3ccccc23)NC(=O)[C@H](CC(=O)O)NC(=O)[C@H](Cc2ccc(O)cc2)NC(=O)[C@H](Cc2ccccc2)NC(=O)CSC[C@@H](C(=O)N[C@@H](C)C(N)=O)NC(=O)[C@H](CO)NC(=O)[C@H](C(C)C)NC1=O` [Compound 1770] ({CH2CO}-FYDWV[Bip]V[NMeA][dL]RLVSCA-NH2; thioether N-14) was 0.04 µM.
On the same count and under the same terms, the value for `CC[C@H](C)[C@@H]1NC(=O)[C@H](Cc2ccc(-c3ccccc3)cc2)NC(=O)[C@H](C(C)(C)O)NC(=O)[C@H](Cc2cccc(C)c2)NC(=O)[C@H](CC(=O)O)NC(=O)[C@H](Cc2ccc(O)cc2)NC(=O)[C@H](CC(N)=O)NC(=O)CSC[C@@H](C(=O)N[C@@H](CCN)C(N)=O)NC(=O)[C@H]([C@@H](C)O)NC(=O)[C@H](C(C)C)NC(=O)[C@H](CC2CCCCC2)NC(=O)[C@H](CCN)NC(=O)[C@@H](CC(C)C)NC(=O)[C@H](C)N(C)C1=O` [Compound 1691] ({CH2CO}-NYD[Phe(3-Me)][Val(3-OH)][Bip]I[NMeA][dL][Dab][Cha]VTC[Dab]-NH2; thioether N-14) was 0.02 µM; that for `CC[C@H](C)[C@@H]1NC(=O)[C@H](Cc2ccc(-c3ccccc3)cc2)NC(=O)[C@H](C(C)C)NC(=O)[C@H](Cc2cccc(C)c2)NC(=O)[C@H](CC(=O)O)NC(=O)[C@H](Cc2ccc(O)cc2)NC(=O)[C@H](CC(N)=O)NC(=O)CSC[C@@H](C(=O)N[C@@H](CCN)C(N)=O)NC(=O)[C@H]([C@@H](C)O)NC(=O)[C@H](C(C)(C)O)NC(=O)[C@H](CC(C)C)NC(=O)[C@H](CCN)NC(=O)[C@@H](CC(C)C)NC(=O)[C@H](C)N(C)C1=O` [Compound 1684] ({CH2CO}-NYD[Phe(3-Me)]V[Bip]I[NMeA][dL][Dab]L[Val(3-OH)]TC[Dab]-NH2; thioether N-14) was 0.01 µM; that for `CC(C)C[C@@H]1NC(=O)[C@H](CCCNC(=N)N)NC(=O)[C@H](Cc2cccc(Cl)c2)NC(=O)[C@H](C)N(C)C(=O)[C@H](CCCNC(=N)N)NC(=O)[C@H](Cc2ccc(-c3ccccc3)cc2)NC(=O)[C@H](C(C)C)NC(=O)[C@H](Cc2c[nH]c3ccccc23)NC(=O)[C@H](CC(=O)O)NC(=O)[C@H](Cc2ccc(O)cc2)NC(=O)[C@H](Cc2ccccc2)NC(=O)CSC[C@@H](C(=O)NCC(N)=O)NC(=O)[C@H](CO)NC(=O)[C@H](C(C)C)NC1=O` [Compound 1014] ({CH2CO}-FYDWV[Bip]R[NMeA][Phe(3-Cl)]RLVSCG-NH2; thioether N-14) was 0.2 µM.
The same measure, in the same setting: the result for `CC(C)C[C@@H]1NC(=O)[C@H](Cc2c[nH]c3ccccc23)NC(=O)[C@H](CC(=O)O)NC(=O)[C@H](Cc2ccc(C(=O)O)cc2)NC(=O)[C@H](Cc2cnc[nH]2)NC(=O)CSC[C@@H](C(=O)N[C@@H](C)C(N)=O)NC(=O)[C@H](CO)NC(=O)[C@H](C(C)C)NC(=O)[C@H](CC(C)C)NC(=O)[C@H](CC(N)=O)NC(=O)[C@@H](C)NC(=O)[C@H](C)N(C)C(=O)[C@H](C(C)C)NC(=O)[C@H](Cc2ccc(-c3ccccc3)cc2)NC1=O` [Compound 1760] ({CH2CO}-H[Phe(4-COOH)]DWL[Bip]V[NMeA][dA]NLVSCA-NH2; thioether N-14) reads 0.03 µM.
